# Laboratory results published in paper PMC6406907, “A H2AX–CARP-1 Interaction Regulates Apoptosis Signaling Following DNA Damage” (Cancers, 2019).
# No end group written: not given here. HA = not defined here
# Tests used:
# [1] = tested on: caspases-3, -8, -9, and -2; assay: Caspase activity, ApoAlert Caspase profiling plate, MDA-MB-468 sublines; format: cell-based, human; settings: for caspase-3 activation in EGFP-peptide-expressing cells: MDA-MB-468 sublines vs EGFP vector subline, Figure 7E,F
# Excerpt: Our next objective was to analyze the biological significance of the CARP-1–H2AX interaction in cells. For this purpose, we utilized MDA-MB-468 and HeLa cell lines that stably express myc-His-tagged wild-type CARP-1 or CARP-1 (Δ600–650)-myc-His proteins as detailed in Figure S4 (Supplementary Materials). These sublines were then either untreated (Control, DMSO), or treated with Adriamycin or CFM-4 compound. […] Next, we measured activation of caspases as an apoptosis readout in cells expressing myc-His-tagged wild-type CARP-1 or CARP-1 (Δ600–650) proteins that were either untreated or treated with Adriamycin or CFM compounds as detailed in Section 2. We utilized a lower, 4–5 μM dose of Adriamycin or CFM compounds because a 10 μM Adriamycin dose caused interference in signal output/readout in this particular assay, likely due to background fluorescence that is emitted by higher dose of Adriamycin. Although Adriamycin has a maximum excitation and emission wavelength of 470 and 560 nm, respectively, we found significant fluorescence emission in cells treated with 10 μM Adriamycin at a 380-nm excitation wavelength. Moreover, since caspase activation precedes apoptotic cell death, we utilized a lower dose of Adriamycin to permit a robust measurement of optimal caspase activation in cells undergoing moderate apoptosis with lower/minimal interference by Adriamycin-induced fluorescence signals. […] MDA-MB-468 or HeLa cells that express EGFP or EGFP-H2AX (1–35) were separately treated with Adriamycin, and presence of CARP-1 and γH2AX was determined by immuno-cytochemical staining followed by photography by a confocal microscope as described in Section 2. […]
# Figure 7 Disruption of H2AX interaction with CARP-1 results in enhanced viabilities of CFM-4-, CFM-4.16-, or Adriamycin-treated cells in part due to reduced apoptosis. […] The fluorescence released from the activated caspase-dependent cleavage of respective substrate was detected by a plate reader at the excitation and emission wavelengths of 380 nm and 460 nm, respectively, as detailed in Section 2. […]
# [2] = tested on: γH2AX; assay: Confocal immunofluorescence of γH2AX / peptide, MDA-MB-468; format: cell-based, human
# Procedure: Cells were plated onto chamber slides one day before treatment. Following treatment of cells with respective compounds, the adherent cells were fixed with 5% formaldehyde for 10 min and then washed with phosphate buffered saline (PBS). Samples were blocked (0.5% NP-40, 5% milk powder, 1% fetal bovine serum) for 30 min. After a single wash with PBS, cells were incubated with primary antibodies for 45 to 60 min. Coverslips were washed with PBS and then incubated with secondary antibodies for another 45 to 60 min. They were then washed with PBS and mounted with 0.1 μg/mL 4′,6′-diamidino-2-phenylindole (DAPI) containing mounting solution. For confocal imaging, cells were first fixed with PFA, then stained for CARP-1 by myc-tag antibodies (green), γH2AX antibodies (red), and DAPI (blue) for nuclear staining. Immunofluorescent or confocal images were taken using a Zeiss LSM 510 Meta NLO (63×).
# Our next objective was to analyze the biological significance of the CARP-1–H2AX interaction in cells. […] Next, we measured activation of caspases as an apoptosis readout in cells expressing myc-His-tagged wild-type CARP-1 or CARP-1 (Δ600–650) proteins that were either untreated or treated with Adriamycin or CFM compounds as detailed in Section 2. We utilized a lower, 4–5 μM dose of Adriamycin or CFM compounds because a 10 μM Adriamycin dose caused interference in signal output/readout in this particular assay, likely due to background fluorescence that is emitted by higher dose of Adriamycin. Although Adriamycin has a maximum excitation and emission wavelength of 470 and 560 nm, respectively, we found significant fluorescence emission in cells treated with 10 μM Adriamycin at a 380-nm excitation wavelength. Moreover, since caspase activation precedes apoptotic cell death, we utilized a lower dose of Adriamycin to permit a robust measurement of optimal caspase activation in cells undergoing moderate apoptosis with lower/minimal interference by Adriamycin-induced fluorescence signals. […]
compound,measurement,setting,value
"EGFP-H2AX (1–35): EGFP-tagged fusion protein stably expressed in MDA-MB-468 and HeLa sublines (MSGRGKTGGKARAKAKSRSSRAGLQFPVGRVHRLL; also: EGFP fusion, end not given here; UniProt P16104 1-35, looked up, fragment)",caspase-3 activation in EGFP-peptide-expressing cells,[1],overall reduction in activation of caspase-3
same,nuclear presence of γH2AX,"[2]; MDA-MB-468 expressing EGFP-H2AX (1–35) vs EGFP, Adriamycin-treated",increased nuclear presence of γH2AX
"His-TAT-HA-CARP-1 (636–650): His-TAT-HA-tagged CARP-1 (636–650) peptide, >95% purity, commercially synthesized ({His-TAT-HA}-PKTMKVNDLRKELES; reading uncertain; UniProt Q8IX12 636-650, looked up, fragment)",co-localization with γH2AX,"[2]; 6 μg/mL peptide, 72 h, confocal, insets top and middle rows of Figure 8C",co-localization
same,presence of γH2AX in Adriamycin-treated cells,"[2]; MDA-MB-468 pre-incubated with 6 μg/mL peptide, 72 h, then Adriamycin, vs no peptide or scrambled peptide",increased presence of γH2AX
"EGFP-CARP-1 (636–650): EGFP-tagged fusion protein stably expressed in MDA-MB-468 and HeLa sublines (PKTMKVNDLRKELES; also: EGFP fusion kept, end not given here)",caspase-3 activation in EGFP-peptide-expressing cells,[1],overall reduction in activation of caspase-3
"COc1cccc2c1C(=O)c1c(O)c3c(c(O)c1C2=O)C[C@@](O)(C(=O)CO)C[C@@H]3O[C@H]1C[C@H](N)[C@H](O)[C@H](C)O1 [Adriamycin, doxorubicin, reference compound]",caspase activation in CARP-1 (Δ600–650) cells,"[1]; 4–5 μM, CARP-1 (Δ600–650) vs wild-type CARP-1-expressing cells, mean of two experiments, 380/460 nm","overall reduction in activation of caspases-3, -8, -9, and -2"
